According to EP1329454A1, “THIENOPYRIMIDINE COMPOUNDS AND THEIR SALTS AND PROCESS FOR PREPARATION OF BOTH” (NIPPON SODA CO., LTD., priority 2000, dated 2002):

Tests used:
Format in all cases: biochemical
[1] = molecular target: T1, PDE 5 (cGMP specific PDE) (Homo sapiens, UniProt O76074); test: Phosphodiesterase inhibiting effect, PDE 5 separated from human platelets; details: isozyme from human platelets; [3H]-cAMP or [3H]-cGMP substrate; read-out: PDE inhibiting activity : IC50(nM) PDE5
T1 construct: from tissue; host or cells: human platelets, DEAE-cellulose fraction
Experimental: (§1) Cyclic nucleotide phosphodiesterases from human platelets and from the heart and kidney of a dog were eluted by the concentration gradient method with 70 to 1000 mM of sodium acetate on DEAE-cellulose column chromatography (Whatman Co. Ltd., DE-52, φ 3.2 x 13 cm) according to the method of Thompson and others (Thompson W. J., et al., Advances in Cyclic Nucleotide Research: 10, 69-92, 1979), and separated into isozymes. PDE 5 (cGMP specific PDE), PDE 3 (cGMP inhibited PDE) and PDE 2 (cGMP stimulated PDE) were separated from the platelets, PDE 1 (Ca-calmodulin dependent PDE) and PDE 4 (cAMP specific PDE) were separated from the heart and the kidney respectively. The method of Thompson, et al was partially modified to measure phosphodiesterase activities: […] of [3H]-cAMP or [3H]-cGMP was decomposed with phosphodiesterase. The produced 5'-AMP or 5'-GMP was decomposed to adenosine or guanosine with a snake venom (Sigma V7000). The reaction solution was added to anion exchange resin (Bio-Rad Co. Ltd., AG1-X8). Non-adsorbed adenosine or guanosine was counted by a liquid scintillation counter. […]

[2] = molecular target: PDE 1 (Ca-calmodulin dependent PDE); test: Phosphodiesterase inhibiting effect, PDE 1 separated from dog heart; details: isozyme from the heart of a dog; [3H]-cAMP or [3H]-cGMP substrate; read-out: PDE inhibiting activity : IC50(nM) PDE1
Experimental: as §1

[3] = molecular target: PDE 4 (cAMP specific PDE); test: Phosphodiesterase inhibiting effect, PDE 4 separated from dog kidney; details: isozyme from the kidney of a dog; [3H]-cAMP or [3H]-cGMP substrate; read-out: PDE inhibiting activity : IC50(nM) PDE4
Experimental: as §1

[4] = molecular target: T2, PDE 3 (cGMP inhibited PDE) (Homo sapiens, UniProt Q14432); details: isozyme from human platelets; [3H]-cAMP or [3H]-cGMP substrate; read-out: PDE inhibiting activity : IC50(nM) PDE3
T2 construct: from tissue; host or cells: human platelets, DEAE-cellulose fraction
Excerpt: PDE 5 (cGMP specific PDE), PDE 3 (cGMP inhibited PDE) and PDE 2 (cGMP stimulated PDE) were separated from the platelets, PDE 1 (Ca-calmodulin dependent PDE) and PDE 4 (cAMP specific PDE) were separated from the heart and the kidney respectively. The method of Thompson, et al was partially modified to measure phosphodiesterase activities: […] of [3H]-cAMP or [3H]-cGMP was decomposed with phosphodiesterase. The produced 5'-AMP or 5'-GMP was decomposed to adenosine or guanosine with a snake venom (Sigma V7000). The reaction solution was added to anion exchange resin (Bio-Rad Co. Ltd., AG1-X8). Non-adsorbed adenosine or guanosine was counted by a liquid scintillation counter.

T2 sequence (Q14432 whole entry): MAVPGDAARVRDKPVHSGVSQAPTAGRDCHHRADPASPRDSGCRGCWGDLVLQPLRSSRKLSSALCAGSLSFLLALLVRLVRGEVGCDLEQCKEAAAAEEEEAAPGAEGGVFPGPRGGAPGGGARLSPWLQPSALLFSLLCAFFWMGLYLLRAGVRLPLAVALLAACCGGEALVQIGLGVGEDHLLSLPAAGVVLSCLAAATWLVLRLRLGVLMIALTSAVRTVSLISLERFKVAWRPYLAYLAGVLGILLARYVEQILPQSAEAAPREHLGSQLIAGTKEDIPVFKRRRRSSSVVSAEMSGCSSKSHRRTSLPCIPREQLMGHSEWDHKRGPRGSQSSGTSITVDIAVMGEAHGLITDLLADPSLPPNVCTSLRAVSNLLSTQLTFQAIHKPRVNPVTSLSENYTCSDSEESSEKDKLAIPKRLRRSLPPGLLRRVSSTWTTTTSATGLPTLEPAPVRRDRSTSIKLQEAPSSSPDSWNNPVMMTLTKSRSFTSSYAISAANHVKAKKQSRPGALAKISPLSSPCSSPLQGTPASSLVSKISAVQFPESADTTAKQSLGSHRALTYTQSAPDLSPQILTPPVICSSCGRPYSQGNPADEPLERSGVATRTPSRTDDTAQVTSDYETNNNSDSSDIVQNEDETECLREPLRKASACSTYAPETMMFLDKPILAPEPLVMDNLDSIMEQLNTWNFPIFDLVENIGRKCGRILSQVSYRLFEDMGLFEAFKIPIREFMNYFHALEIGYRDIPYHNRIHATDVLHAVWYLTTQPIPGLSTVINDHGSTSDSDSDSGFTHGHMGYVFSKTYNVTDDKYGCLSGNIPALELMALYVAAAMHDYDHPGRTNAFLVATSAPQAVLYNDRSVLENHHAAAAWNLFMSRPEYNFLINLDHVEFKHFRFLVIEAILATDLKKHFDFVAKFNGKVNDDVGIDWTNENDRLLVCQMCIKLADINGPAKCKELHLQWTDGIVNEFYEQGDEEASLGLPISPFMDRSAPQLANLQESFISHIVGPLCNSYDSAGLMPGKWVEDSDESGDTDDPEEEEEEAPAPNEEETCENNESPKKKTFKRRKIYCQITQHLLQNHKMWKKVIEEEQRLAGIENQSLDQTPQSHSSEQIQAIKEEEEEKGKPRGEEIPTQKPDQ

SMILES	IC50 [1] [nM]	IC50 [2] [nM]	IC50 [3] [nM]	IC50 [4] [nM]
COc1ccc(CNc2nc(-c3cccnc3)nc3sc(C(=O)Nc4nccs4)c(C)c23)cc1Cl [Compound 13]	0.32			
COc1ccc(CNc2nc(-c3cccnc3)nc3sc(C(=O)N(C)C)c(C)c23)cc1Cl [Compound 5]	3.7	> 10000	1400	
COc1ccc(CNc2nc(-c3cccnc3)nc3sc(C(=O)Nc4cccnc4)c(C)c23)cc1Cl [Compound 14]	2.1			
COc1ccc(CNc2nc(-c3ccncc3)nc3sc(C(=O)O)c(C)c23)cc1Cl [Compound 19]	0.74	> 10000	4400	
COc1ccc(CNc2nc(-c3ccncc3)nc3sc(C(=O)N4CCCCC4)c(C)c23)cc1Cl [Compound 28]	0.5	> 10000	1600	
COc1ccc(CNc2nc(-c3cccnc3)nc3sc(C(=O)N4CCN(C=O)CC4)c(C)c23)cc1Cl [Compound 9]	6.1			
COc1ccc(CNc2nc(C(=O)Nc3ccccc3)nc3sc(C(=O)Nc4ccccc4)c(C)c23)cc1Cl [Compound 87]	0.27			
COc1ccc(CNc2nc(-c3ccccn3)nc3sc(C(=O)Nc4ccccc4)c(C)c23)cc1Cl [Compound 44]	6.4	> 10000		
CCOC(=O)c1sc2nc(-c3ccncc3)nc(NCc3ccc(OC)c(Cl)c3)c2c1C [Compound 20]	3.2	> 10000	> 10000	
COc1ccc(CNc2nc(-c3ccncc3)nc3sc(C(=O)N4CCOCC4)c(C)c23)cc1Cl [Compound 27]	0.53	> 10000	3700	
COc1ccc(CNc2nc(-c3cccnc3)nc3sc(C(=O)NCCO[N+](=O)[O-])c(C)c23)cc1Cl [Compound 18]	2.8			
COc1ccc(CNc2nc(-c3ccccn3)nc3sc(C(=O)Nc4cccnc4)c(C)c23)cc1Cl [Compound 51]	7.2			
COc1ccc(CNc2nc(-c3ccncc3)nc3sc(C(=O)Nc4nccs4)c(C)c23)cc1Cl [Compound 33]	0.095			
COc1ccc(CNc2nc(-c3cccnc3)nc3sc(-c4ccncc4)c(C)c23)cc1Cl [Compound 10]	3.3	> 10000		
COc1ccc(CNc2nc(C(=O)Nc3ccccc3)nc3sc(-c4cccnc4)c(C)c23)cc1Cl [Compound 57]	0.29			
COc1ccc(CNc2nc(C(=O)Nc3ccccc3)nc3sc(-c4ccc(F)cc4)c(C)c23)cc1Cl [Compound 90]	0.43	> 10000	8400	> 10000
CCCc1nn(C)c2c(=O)[nH]c(-c3cc(S(=O)(=O)N4CCN(C)CC4)ccc3OCC)nc12 [Control, Sildenafil, reference compound]		2000	> 1000	
COc1ccc(CNc2nc(-c3cccnc3)nc3sc(C(N)=O)c(C)c23)cc1Cl [Compound 3]	2.3			

SMILES	IC50 [1] [nM]	IC50 [2] [nM]	IC50 [3] [nM]	IC50 [4] [nM]
COc1ccc(CNc2nc(-c3ccccn3)nc3sc(C(=O)Nc4nccs4)c(C)c23)cc1Cl [Compound 50]	2.3			
COc1ccc(CNc2nc(-c3ccncc3)nc3sc(C(=O)N4CCN(C)CC4)c(C)c23)cc1Cl [Compound 29]	0.52	> 10000	6900	
CCOC(=O)c1nc(NCc2ccc(OC)c(Cl)c2)c2cc(-c3ccccc3)sc2n1 [Compound 93]	2.9	> 10000	> 10000	> 10000
COc1ccc(CNc2nc(-c3cccnc3)nc3sc(C#N)c(C)c23)cc1Cl [Compound 4]	4.5			
COc1ccc(CNc2nc(-c3cccnc3)nc3sc(C(=O)N4CCOCC4)c(C)c23)cc1Cl [Compound 7]	3.5	> 10000	1700	
COc1ccc(CNc2nc(-c3ccncc3)nc3sc(C(=O)NCCO[N+](=O)[O-])c(C)c23)cc1Cl [Compound 38]	0.65			
COc1ccc(CNc2nc(-c3ccncc3)nc3sc(-c4ccccn4)c(C)c23)cc1Cl [Compound 32]	0.68	> 10000	240	
COc1ccc(CNc2nc(C(=O)Nc3ccccc3)nc3sc(-c4ccncc4)c(C)c23)cc1Cl [Compound 68]	0.27	> 10000	10000	2400
COc1ccc(CNc2nc(-c3cccnc3)nc3sc(C(=O)O)c(C)c23)cc1Cl [Compound 1]	3	7100	1200	
COc1ccc(CNc2nc(-c3ccncc3)nc3sc(C(=O)Nc4ccc(NC(=O)OC(C)(C)C)cc4)c(C)c23)cc1Cl [Compound 25]	0.52			
COc1ccc(CNc2nc(-c3cccnc3)nc3sc(C(=O)NCCO)c(C)c23)cc1Cl [Compound 17]	2.8			
COc1ccc(CNc2nc(C(=O)Nc3ccccc3)nc3sc(-c4ccccc4)cc23)cc1Cl [Compound 94]	0.71	> 10000	5600	> 10000
COc1ccc(CNc2nc(-c3ccncc3)nc3sc(C(=O)Nc4ccc(N)cc4)c(C)c23)cc1Cl [Compound 26]	0.5			
COc1ccc(CNc2nc(C(=O)Nc3ccccc3)nc3scc(C)c23)cc1Cl [Compound 91]	2.5	> 10000	3400	> 10000
COc1ccc(CNc2nc(-c3ccncc3)nc3sc(C(=O)Nc4ccccc4)c(C)c23)cc1Cl [Compound 24]	0.46			
COc1ccc(CNc2nc(-c3cccnc3)nc3sc(C(=O)Nc4ccccc4)c(C)c23)cc1Cl [Compound 6]	1.5	> 10000		
COc1ccc(CNc2nc(-c3ccncc3)nc3sc(C(=O)N(C)C)c(C)c23)cc1Cl [Compound 23]	1.6	> 10000	1600	
